Test results published in ChEMBL document CHEMBL5584317, “Acroamine A, a 2-Amino Adenine Alkaloid from the Marine Soft Coral Acrozoanthus australiae and Its Semisynthetic Derivatives That Inhibit cAMP-Dependent Protein Kinase A Catalytic Subunit Alpha” (J Nat Prod, 2024).
The source made the active and inactive calls. No cut-off for these calls is given here.

Assays:
Homo sapiens [1] = species: Homo sapiens; assay: Potency index, ratio of IC50 for acroamine A to IC50 for test compound for inhibition of DNAJB1-[…] gene fusion of J-PKAc alpha chimeric protein (unknown origin) using CREB KRREILSRRPSYR-biotinylated peptide as substrate incubated for 45 mins in presence of ATP by ELISA
[2] = target: T1, cAMP-dependent protein kinase catalytic subunit alpha (Homo sapiens, UniProt P17612); assay: Inhibition of PKAcalpha (unknown origin) using CREB KRREILSRRPSYR-biotinylated peptide as substrate incubated for 45 mins in presence of ATP by ELISA
Homo sapiens [3] = species: Homo sapiens; assay: Inhibition of DNAJB1-[…] gene fusion of J-PKAc alpha chimeric protein (unknown origin) at 2 uM using CREB KRREILSRRPSYR-biotinylated peptide as substrate incubated for 45 mins in presence of 25 to 250 uM ATP by ELISA
[4] = target: T1, cAMP-dependent protein kinase catalytic subunit alpha; assay: Potency index, ratio of IC50 for acroamine A to IC50 for test compound for inhibition PKAcalpha (unknown origin) using CREB KRREILSRRPSYR-biotinylated peptide as substrate incubated for 45 mins in presence of ATP by ELISA
[5] = Inhibition of DNAJB1-[…] gene fusion of J-PKAc alpha chimeric protein (unknown origin) using CREB KRREILSRRPSYR-biotinylated peptide as substrate incubated for 45 mins in presence of ATP by ELISA; parameters: species or system Homo sapiens
Homo sapiens [6] = species: Homo sapiens; assay: Inhibition of DNAJB1-[…] gene fusion of J-PKAc alpha chimeric protein (unknown origin) at 10 uM using CREB KRREILSRRPSYR-biotinylated peptide as substrate incubated for 45 mins in presence of 25 to 250 uM ATP by ELISA
[7] = target: T1, cAMP-dependent protein kinase catalytic subunit alpha; assay: Inhibition of PKAcalpha (unknown origin) up to 200 uM using CREB KRREILSRRPSYR-biotinylated peptide as substrate incubated for 45 mins in presence of ATP by ELISA
Homo sapiens [8] = species: Homo sapiens; assay: Inhibition of DNAJB1-[…] gene fusion of J-PKAc alpha chimeric protein (unknown origin) up to 200 uM using CREB KRREILSRRPSYR-biotinylated peptide as substrate incubated for 45 mins in presence of ATP by ELISA

| IC50 [2] [µM] | IC50 [5] [µM] | inhibition [7] | inhibition (Homo sapiens [8]) | SMILES | also measured |
| --- | --- | --- | --- | --- | --- |
|  |  | inactive | inactive | C/N=c1\nc(N(C)CCc2cn(C)c[n+]2C)c2c(ncn2C)n1C |  |
|  |  | inactive | inactive | Cn1cc(CCNc2n/c(=N\C=[N+](C)C)n(C)c3ncn(C)c23)[n+](C)c1 |  |
|  |  | inactive | inactive | Cn1cc(CCNc2nc(=N)n(C)c3ncn(C)c23)[n+](C)c1 |  |
|  |  | inactive | inactive | C/N=c1\nc(NCCc2cn(C)c[n+]2C)c2c(ncn2C)n1C |  |
|  |  | inactive | inactive | CN(C)c1nc(NCCc2cn(C)c[n+]2C)c2c(n1)[n+](C)cn2C |  |

Further lines, the compound ahead of its results:

| SMILES | IC50 [2] [µM] | IC50 [5] [µM] | inhibition [7] | inhibition (Homo sapiens [8]) | also measured |
| --- | --- | --- | --- | --- | --- |
| Nc1nc(NCCc2nc(Br)[nH]c2Br)c2nc(Br)[nH]c2n1 | 2.4 | 2.5 |  |  | Ratio IC50 (Homo sapiens [1]): 19; inhibition (Homo sapiens [3]): inactive; Ratio IC50 [4]: 19 |
| Nc1nc(NCCc2c[nH]cn2)c2nc[nH]c2n1 | 29 | 47 |  |  |  |
| Nc1nc(NCCc2nc(Br)[nH]c2Br)c2nc[nH]c2n1 | 5.7 | 8.9 |  |  | inhibition (Homo sapiens [6]): inactive |
| Nc1nc(NCCc2nc[nH]c2Br)c2nc[nH]c2n1 | 11.6 | 11.5 |  |  | inhibition (Homo sapiens [6]): inactive |
